# Test results as given in patent publication US20030154507A1, “Synthetic herbicide resistance gene” (priority 2001, published 2003).
# Experiments:
# plants = conditions: in vivo; cited from earlier work
# [1] = system: negative controls (cotton); experiment: Respray event, negative controls; assay type: in vivo; conditions: all negative controls; 1/2 lb/acre acid equivalents
# Method: (§1) Each plant tested positive for the SAD construct by PCR. These plants were grown for a further 14 days and then resprayed with 2,4-D amine at the normal field rate of 1/2 lb/acre acid equivalents. […] The 35 plants were grown to maturity, and seeds were collected.
# [2] = system: SAD transgenic cotton plants; experiment: Respray of undamaged SAD plants with 2,4-D amine; assay type: in vivo; conditions: all 35 plants (5 from each of 7 SAD lines); resprayed at 1/2 lb/acre acid equivalents 14 days after first evaluation
# Method: as §1
# [3] = system: transgenic 2,4-D resistant cotton containing the naturally-occurring tfdA gene construct; experiment: Spray of 2,4-D res control seedlings, visual damage evaluation; assay type: in vivo; conditions: 55 plants, 1/2 lb/acre acid equivalents at 24 days, evaluated after 10-14 days
# Excerpt: (§2) To verify that the inserted synthetic SAD genes were inheritable and to gain an indication of the number of gene insertions, seeds from the seven fertile SAD transgenic cotton plants were planted into hydroponic rock wool slabs (Hummert, St. Louis, Mo.) that had been saturated with Peters Professional water-soluble fertilizer (5-11-26 HYDRO-SOL, supplemented with calcium nitrate and magnesium sulfate to provide a complete nutrient compliment; Hummert, St. Louis, Mo.). The hydroponic rock wool slabs were placed on benches in a greenhouse, and nutrients were maintained at optimal levels using a non-recycling hydroponic watering system. Plants were grown under greenhouse conditions (28° C.±5° C. air temperature) for 24 days. At this point, the plants were removed to a spray hood, sprayed with 2,4-D amine at the normal field rate of 1/2 lb/acre acid equivalents, maintained in the hood for 24 hours to allow the 2,4-D to volatilize, and then placed back in the greenhouse.
# (§3) The negative control of Coker 312 that had been regenerated from tissue culture did show some signs of resistance, so these ratios are not to be considered as definitive measures of Mendelian inheritance of the SAD gene.
# [4] = system: SAD transgenic cotton plants; experiment: Spray of seedlings from fertile SAD transgenic cotton lines, visual damage evaluation; assay type: in vivo; conditions: 1/2 lb/acre acid equivalents at 24 days, evaluated after 10-14 days
# Excerpt: as §2, §3
# [5] = system: transgenic cotton plants containing the SAD2 gene (Coker 312); experiment: Greenhouse spray of PCR-positive SAD2 transformed cotton plants with 2,4-D amine; assay type: in vivo; conditions: of 95 plants; 1 lb/acre acid equivalents (twice normal field rate); sprayed at squaring stage or later
# Excerpt: The two binary vectors containing the SAD2 gene, pPZP211-PNPT-311-SAD2 and pPZP211-PNPT-512-SAD2, were individually introduced into the EHA 105 strain of Agrobacterium tumefaciens (Hood et al., Transgenic Research, 2:208-218 (1993)) by direct transformation as described by Walker-Peach and Velten, in Plant Molecular Biology Manual, section B1:1-19 (Gelvin, Shilperoort and Verma, eds., Kluwer Academic Publishers, Dordrecht, The Netherlands, 1994)). The constructs were subsequently introduced by Agrobacterium transfection into cotyledon explants from the cotton variety Coker 312 (Coker Seed Inc.). This was achieved by isolating sterile cotyledon tissue (derived from seedlings grown in culture from surface-sterilized seed as described by Trolinder and Gooden, Plant Cell Reports, 6:231-234 (1987)), generating explants (by use of a sterile hole punch), and submerging the explants in a 48-hour-old culture of EHA 105, containing the appropriate construct, grown at 28° C. […]
# A total of 111 kanamycin-resistant cotton seedlings were generated (44 were generated in the pPZP211-PNPT-311-SAD2 transformations, and 67 in the pPZP211-PNPT-512-SAD2 transformations). Each plant was analyzed for the presence of the SAD synthetic coding sequence and the NPTII coding sequence by PCR to ensure the integrity of the inserted DNA. […]
# [6] = system: Coker 312 (not transgenic) regenerated from somatic embryos; experiment: Spray of 2,4-D sens control seedlings, visual damage evaluation; assay type: in vivo, cotton; conditions: 45 plants, 1/2 lb/acre acid equivalents at 24 days, evaluated after 10-14 days
# Excerpt: as §2, §3
compound,measurement,setting,value
"Oc1ccc(Cl)cc1Cl [DCP, 2,4-dichlorophenol]","toxicity to plants relative to 2,4-D",plants,"much less toxic to plants than 2,4-D"
"CNC.O=C(O)COc1ccc(Cl)cc1Cl [2,4-D amine]",survival following respray,[1],did not survive
same,damage following respray,[2],no damage
same,No Damage (number of plants),[3],7
same,Severe damage (number of plants),[3],15
same,Some symptoms (number of plants),[3],33
same,No Damage (number of plants),"[4]; line 311-22-1-4, 43 plants",16
same,Severe damage (number of plants),"[4]; line 311-22-1-4, 43 plants",11
same,Some symptoms (number of plants),"[4]; line 311-22-1-4, 43 plants",16
same,No Damage (number of plants),"[4]; line 311-22-1-5, 47 plants",6
same,Severe damage (number of plants),"[4]; line 311-22-1-5, 47 plants",23
same,Some symptoms (number of plants),"[4]; line 311-22-1-5, 47 plants",18
same,No Damage (number of plants),"[4]; line 311-22-1-8, 56 plants",14
same,Severe damage (number of plants),"[4]; line 311-22-1-8, 56 plants",14
same,Some symptoms (number of plants),"[4]; line 311-22-1-8, 56 plants",28
same,No Damage (number of plants),"[4]; line 512-21-1-5, 56 plants",8
same,Severe damage (number of plants),"[4]; line 512-21-1-5, 56 plants",14
same,Some symptoms (number of plants),"[4]; line 512-21-1-5, 56 plants",34
same,No Damage (number of plants),"[4]; line 512-21-4-3, 30 plants",7
same,Severe damage (number of plants),"[4]; line 512-21-4-3, 30 plants",3
same,Some symptoms (number of plants),"[4]; line 512-21-4-3, 30 plants",20
same,No Damage (number of plants),"[4]; line 512-21-4-5, 41 plants",5
same,Severe damage (number of plants),"[4]; line 512-21-4-5, 41 plants",12
same,Some symptoms (number of plants),"[4]; line 512-21-4-5, 41 plants",24
same,No Damage (number of plants),"[4]; line 512-24-4-4, 63 plants",7
same,Severe damage (number of plants),"[4]; line 512-24-4-4, 63 plants",35
same,Some symptoms (number of plants),"[4]; line 512-24-4-4, 63 plants",21
same,plants that survived treatment with little or no herbicide damage,[5],22
same,No Damage (number of plants),[6],0
same,Severe damage (number of plants),[6],25
same,Some symptoms (number of plants),[6],20
